Data reported in patent US4831170A, “Pharmaceutically active phospino-hydrocarbon-group VIII-metal complexes, antitumor compositions containing these complexes, and a process for preparing said compounds or antitumor compositions” (priority 1985, dated 1989).
“And” between values parts separate entries of the source, which are not always exact repeats. Identical values can stand only once.

Columns and labels:
[1] = test system: P388 murine leukemia; experiment: Antitumor activity against P388 murine leukemia in CDF1 mice; type: in vivo; settings: 1 x on day 1; for P 388 Dose producing the maximum % T/C: administered ip; for P 388 Maximum % T/C: median survival time treated/saline control x 100, ip, active if ≥125
Description: (§1) All of the metal complexes were tested for antitumor activity against P388 murine leukemia. Selected compounds were also tested for antitumor activity against L1210 murine leukemia and a subline of L1210 murine leukemia resistant to cisplatin (L1210:DDP). CDF1 mice weighing 20 grams were inoculated intraperitoneally with 10^6 ascites cells of P388 leukemia, L1210 leukemia or L1210:DDP leukemia, depending on the test system being used. Drug administration was initiated the day following tumor implantation in all test systems. The complexes were administered at various dose levels by intraperitoneal injection. Groups of four to six mice were used for each dose level and they were treated with the complex on day one only. A group of ten saline treated control mice was included in each experiment. Cisplatin treated groups were included as a positive control in each experiment. The mice were weighed before treatment and again on day five or six and the average weight change used as a measure of toxicity. The animals were observed daily for mortality and the experiments terminated after 30 days. Antitumor activity was determined based on % T/C, which is the ratio of the median survival time of the drug treated group to the median survival time of the saline treated control group times 100. The saline treated mice usually have a median survival time of 9 days with P388 leukemia and 7 days with L1210 and L1210/DDP leukemia. A complex is considered active if it produces a % T/C of ≥125.
(§2) Tables II and IIa contain summaries of the evaluations of the compounds for antitumor activity against the murine leukemias. Listed for each compound is the maximum % T/C achieved and the dose producing that effect.
(§3) For the in vitro cytotoxicity studies the drugs were dissolved or suspended, depending on their solubility, in 0.9% NaCl solution. Occasionally, 5% dextrose in water or 10% DMSO in 0.9% NaCl was used. The compounds were prepared for in vivo treatment by dissolving or suspending, with the addition of minimal amounts of Tween 80, in water.

[2] = test system: B16 Melanoma; experiment: Antitumor activity against B16 Melanoma in BDF1 mice; type: in vivo; settings: for B 16 Dose producing the maximum % T/C: administered ip, days 1-9; for B 16 Maximum % T/C: median survival time vs saline control, ip, daily days 1-9, active if ≥125, figures separated by slashes are from separate experiments
Description: Several of the metal complexes were additionally evaluated for antitumor activity against B16 Melanoma. BDF1 mice, 10 per group, were inoculated intraperitoneally with 0.5 ml of a 10 percent (w:v) brei of B16 Melanoma. Intraperitoneal treatment with the metal complexes was initiated one day after implant and continued daily for a total of nine days. From 4 to 5 doses were tested for each compound under study. A saline treated control group and cisplatin treated groups were included in each experiment. The mice were observed daily for survivors and the experiments terminated after 60 days. […] The median survival time of the drug treated mice relative to that of the controls (% T/C) was used as a measure of antitumor activity.
Occasionally, 5% dextrose in water or 10% DMSO in 0.9% NaCl was used. The compounds were prepared for in vivo treatment by dissolving or suspending, with the addition of minimal amounts of Tween 80, in water.

[3] = test system: L1210 murine leukemia; experiment: Antitumor activity against L1210 murine leukemia in CDF1 mice; type: in vivo; settings: day 1; for L1210 Dose producing the maximum % T/C: administered ip; for L1210 Max. % T/C: median survival time treated/saline control x 100, ip, active if ≥125
Description: as §1, §2, §3

[4] = test system: L1210 murine leukemia resistant to cisplatin (L1210:DDP); experiment: Antitumor activity against cisplatin-resistant L1210 murine leukemia (L1210/DDP) in CDF1 mice; type: in vivo; settings: cisplatin-resistant subline, day 1; for L1210/DDP Dose producing the maximum % T/C: administered ip; for L1210/DDP Max. % T/C: done concomitantly with L1210 test, ip, active if ≥125
Description: as §1, §2, §3

[5] = test system: B16-F10 murine melanoma cells; experiment: In vitro cytotoxicity, B16-F10 murine melanoma cells (72 h, crystal violet); type: cell-based
Description: (§4) Logarithmically growing cells were harvested by mild trypsinization and 4000 cells were added to each well of a 96-well microtiter plate (Costar). […] The cells were then treated with a metal complex or cisplatin and incubated for 72 hours. The plates were inverted and shaken to remove media, drug and detached cells. […] The fixative was removed, the plates air dried, stained with 0.0075% crystal violet for 15 minutes, washed twice and air dried. The stain was solubilized with 0.2 ml of 0.1 M AcOH/EtOH (1:1) and optical densities determined using a Dynatech MR600 microtiter plate reader. […] The compounds were prepared for in vivo treatment by dissolving or suspending, with the addition of minimal amounts of Tween 80, in water.

[6] = test system: HCT-116 human colon carcinoma cells; experiment: In vitro cytotoxicity, HCT-116 human colon carcinoma cells (72 h, crystal violet); type: cell-based; settings: HCT-116 cells
Description: as §4

Compound: O=S(=O)([O-])C(F)(F)F.[Rh+].c1ccc(P(CCP(c2ccccc2)c2ccccc2)c2ccccc2)cc1.c1ccc(P(CCP(c2ccccc2)c2ccccc2)c2ccccc2)cc1 [TNO 302, Bis[1,2-bis(diphenylphosphino)ethane]rhodium(I) triflate]
- P 388 Dose producing the maximum % T/C [1]: 4 mg/kg
- P 388 Maximum % T/C [1]: 153 % T/C
- B 16 Dose producing the maximum % T/C [2]: 3.2 mg/kg/inj.
- B 16 Maximum % T/C [2]: 150 % T/C and 126 % T/C

Compound: [O-][Cl+3]([O-])([O-])[O-].[Rh+].c1ccc(P(CCP(c2ccccc2)c2ccccc2)c2ccccc2)cc1.c1ccc(P(CCP(c2ccccc2)c2ccccc2)c2ccccc2)cc1 [TNO 316, Bis[1,2-bis(diphenylphosphino)ethane]rhodium(I) perchlorate]
- P 388 Dose producing the maximum % T/C [1]: 12.5 mg/kg
- P 388 Maximum % T/C [1]: 150 % T/C
- L1210 Dose producing the maximum % T/C [3]: 160 mg/kg
- L1210 Max. % T/C [3]: 133 % T/C
- L1210/DDP Dose producing the maximum % T/C [4]: 120 mg/kg
- L1210/DDP Max. % T/C [4]: 157 % T/C
- B 16 Dose producing the maximum % T/C [2]: 16 mg/kg/inj.
- B 16 Maximum % T/C [2]: 131 % T/C

Compound: [I-].[I-].[Pd+2].c1ccc(P(CCP(c2ccccc2)c2ccccc2)c2ccccc2)cc1.c1ccc(P(CCP(c2ccccc2)c2ccccc2)c2ccccc2)cc1 [TNO 342, Bis[1,2-(diphenylphosphino)ethane]diiodo palladium(II)]
- P 388 Dose producing the maximum % T/C [1]: 5 mg/kg
- P 388 Maximum % T/C [1]: 139 % T/C

Compound: [O-][Cl+3]([O-])([O-])[O-].[O-][Cl+3]([O-])([O-])[O-].[Pd+2].c1ccc(P(CCP(c2ccccc2)c2ccccc2)c2ccccc2)cc1.c1ccc(P(CCP(c2ccccc2)c2ccccc2)c2ccccc2)cc1 [TNO 343, Bis[1,2-bis(diphenylphosphino)ethane]palladium(II) diperchlorate]
- P 388 Dose producing the maximum % T/C [1]: 200 mg/kg
- P 388 Maximum % T/C [1]: 178 % T/C
- B 16 Dose producing the maximum % T/C [2]: 60 mg/kg/inj.
- B 16 Maximum % T/C [2]: 204 % T/C

Compound: O=[N+]([O-])[O-].O=[N+]([O-])[O-].[Pd+2].c1ccc(P(CCP(c2ccccc2)c2ccccc2)c2ccccc2)cc1.c1ccc(P(CCP(c2ccccc2)c2ccccc2)c2ccccc2)cc1 [TNO 345, Bis[1,2-bis(diphenylphosphino)ethane]palladium(II) dinitrate]
- IC 50 (concentration which inhibits cell growth by 50%), B 16 [5]: 4.0 µg/mL
- IC 50 (concentration which inhibits cell growth by 50%), HCT 116 [6]: 19.6 µg/mL
- L1210 Dose producing the maximum % T/C [3]: 0,8 mg/kg
- L1210 Max. % T/C [3]: 100 % T/C

Compound: [Br-].[Br-].[Co+2].c1ccc(P(CCP(c2ccccc2)c2ccccc2)c2ccccc2)cc1.c1ccc(P(CCP(c2ccccc2)c2ccccc2)c2ccccc2)cc1 [TNO 346, Bis[1,2-bis(diphenylphosphino)ethane]bromo cobalt(II) bromide]
- P 388 Dose producing the maximum % T/C [1]: 100 mg/kg
- P 388 Maximum % T/C [1]: 167 % T/C
- L1210 Dose producing the maximum % T/C [3]: 200 mg/kg
- L1210 Max. % T/C [3]: 100 % T/C

Compound: [Cl-].[Cl-].[Cl-].[Rh+3].c1ccc(P(CCP(c2ccccc2)c2ccccc2)c2ccccc2)cc1.c1ccc(P(CCP(c2ccccc2)c2ccccc2)c2ccccc2)cc1 [TNO 363, Bis[1,2-bis(diphenylphosphino)ethane]dichloro rhodium(III) chloride]
- P 388 Dose producing the maximum % T/C [1]: 50 mg/kg
- P 388 Maximum % T/C [1]: 133 % T/C

Compound: [Br-].[Br][Pd+].c1ccc(P(CCP(c2ccccc2)c2ccccc2)c2ccccc2)cc1.c1ccc(P(CCP(c2ccccc2)c2ccccc2)c2ccccc2)cc1 [TNO 376, Bis[1,2-bis(diphenylphosphino)ethane]bromo palladium(II) bromide]
- IC 50 (concentration which inhibits cell growth by 50%), B 16 [5]: 0.7 µg/mL
- IC 50 (concentration which inhibits cell growth by 50%), HCT 116 [6]: 6.3 µg/mL

Compound: [Cl-].[Cl-].[O-][Cl+3]([O-])([O-])[O-].[Rh+3].c1ccc(P(CC[As](c2ccccc2)c2ccccc2)c2ccccc2)cc1.c1ccc(P(CC[As](c2ccccc2)c2ccccc2)c2ccccc2)cc1 [TNO 395, Bis[1-diphenylphosphino-2-diphenylarsinoethane]dichloro rhodium(III) perchlorate]
- P 388 Dose producing the maximum % T/C [1]: 200 mg/kg
- P 388 Maximum % T/C [1]: 136 % T/C

Compound: C(=CP(c1ccccc1)c1ccccc1)P(c1ccccc1)c1ccccc1.C(=CP(c1ccccc1)c1ccccc1)P(c1ccccc1)c1ccccc1.[Cl-].[Cl-].[Fe+2] [TNO 396, Bis[cis-1,2-bis(diphenylphosphino)ethylene]dichloro iron(II)]
- IC 50 (concentration which inhibits cell growth by 50%), B 16 [5]: 452 µg/mL
- IC 50 (concentration which inhibits cell growth by 50%), HCT 116 [6]: 383 µg/mL
- P 388 Dose producing the maximum % T/C [1]: 200 mg/kg
- P 388 Maximum % T/C [1]: 150 % T/C

Compound: [Ir+3].[O-][Cl+3]([O-])([O-])[O-].[O-][O-].c1ccc(P(CCP(c2ccccc2)c2ccccc2)c2ccccc2)cc1.c1ccc(P(CCP(c2ccccc2)c2ccccc2)c2ccccc2)cc1 [TNO 413, Bis[1,2-bis(diphenylphosphino)ethane]peroxo iridium(III) perchlorate]
- P 388 Dose producing the maximum % T/C [1]: 200 mg/kg
- P 388 Maximum % T/C [1]: 170 % T/C

Compound: Bis[1,2-bis(diphenylphosphino)ethane] cobalt(II) diperchlorate [TNO 358]
- P 388 Dose producing the maximum % T/C [1]: 100 mg/kg
- P 388 Maximum % T/C [1]: 144 % T/C
- L1210 Dose producing the maximum % T/C [3]: 120 mg/kg
- L1210 Max. % T/C [3]: 142 % T/C
- L1210/DDP Dose producing the maximum % T/C [4]: 100 mg/kg
- L1210/DDP Max. % T/C [4]: 143 % T/C
- B 16 Dose producing the maximum % T/C [2]: 20 mg/kg/inj.
- B 16 Maximum % T/C [2]: 150 % T/C

Compound: Bis[1,2-bis(diphenylphosphino)ethane] dichloro rhodium(III) perchlorate [TNO 355]
- P 388 Dose producing the maximum % T/C [1]: 100 mg/kg
- P 388 Maximum % T/C [1]: 167 % T/C
- L1210 Dose producing the maximum % T/C [3]: 80 mg/kg
- L1210 Max. % T/C [3]: 114 % T/C
- L1210/DDP Dose producing the maximum % T/C [4]: 49 mg/kg
- L1210/DDP Max. % T/C [4]: 119 % T/C
- B 16 Dose producing the maximum % T/C [2]: 30 mg/kg/inj.
- B 16 Maximum % T/C [2]: 171 % T/C

Compound: Bis[1,2-bis(diphenylphosphino)ethane] iridium(I) perchlorate [TNO 344]
- P 388 Dose producing the maximum % T/C [1]: 200 mg/kg
- P 388 Maximum % T/C [1]: 167 % T/C
- B 16 Dose producing the maximum % T/C [2]: 20 mg/kg/inj.
- B 16 Maximum % T/C [2]: 150 % T/C

Compound: Bis[1,2-bis(diphenylphosphino)ethane] nickel(II) perchlorate [TNO 404]
- P 388 Dose producing the maximum % T/C [1]: 25 mg/kg
- P 388 Maximum % T/C [1]: 240 % T/C

Compound: Bis[1,2-bis(diphenylphosphino)ethane]palladium(II) dichlorate [TNO 306]
- IC 50 (concentration which inhibits cell growth by 50%), B 16 [5]: 57 µg/mL
- P 388 Dose producing the maximum % T/C [1]: 60 mg/kg
- P 388 Maximum % T/C [1]: 144 % T/C
- L1210 Dose producing the maximum % T/C [3]: 1.9 mg/kg
- L1210 Max. % T/C [3]: 100 % T/C
- L1210/DDP Dose producing the maximum % T/C [4]: 3.0 mg/kg
- L1210/DDP Max. % T/C [4]: 100 % T/C
- B 16 Dose producing the maximum % T/C [2]: 12 mg/kg/inj.
- B 16 Maximum % T/C [2]: 202 % T/C and 151 % T/C

Compound: Bis[cis-1,2-bis(diphenylphosphino)ethylene]dichloro iron(III) tetrachloroferrate(III) [TNO 405]
- P 388 Dose producing the maximum % T/C [1]: 100 mg/kg
- P 388 Maximum % T/C [1]: 160 % T/C

Compound: Bis[cis-1,2-bis(diphenylphosphino)ethylene]palladium(II) dichloride [TNO 357]
- IC 50 (concentration which inhibits cell growth by 50%), B 16 [5]: 27.7 µg/mL
- IC 50 (concentration which inhibits cell growth by 50%), HCT 116 [6]: 13.1 µg/mL
